This is an account of results in patent US20250206724A1, “SUBSTITUTED 3-AMINO INDAZOLE DERIVATIVES AS KINASE INHIBITORS” (NERVIANO MEDICAL SCIENCES S.R.L., priority 2022, published 2025).

Where a name gives a salt, the structure may show the parent alone.
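Further: compound preincubated 30 min with CDK11A-p58, then probe added and polarization (mP) read 15 min later, 0% displacement is probe plus enzyme, 100% is probe alone.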

The target of the test is T1, CDK11A (Homo sapiens, UniProt Q9UQ88).
T1 sequence (Q9UQ88 346-783): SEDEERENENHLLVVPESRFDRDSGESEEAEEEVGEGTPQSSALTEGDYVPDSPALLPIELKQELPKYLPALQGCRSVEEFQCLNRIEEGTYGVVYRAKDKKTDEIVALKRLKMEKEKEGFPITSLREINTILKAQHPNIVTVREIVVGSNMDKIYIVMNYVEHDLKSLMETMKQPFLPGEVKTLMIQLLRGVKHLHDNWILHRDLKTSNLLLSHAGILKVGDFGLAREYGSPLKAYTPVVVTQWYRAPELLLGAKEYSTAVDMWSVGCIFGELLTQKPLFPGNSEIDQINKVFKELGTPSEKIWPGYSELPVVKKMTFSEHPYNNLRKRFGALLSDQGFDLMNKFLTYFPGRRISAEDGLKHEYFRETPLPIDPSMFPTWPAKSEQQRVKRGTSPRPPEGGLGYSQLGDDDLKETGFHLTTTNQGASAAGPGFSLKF
Conditions: displacement of SNS-032-Atto590 probe (0.002 μM) from CDK11A-p58 (0.032 uM), fluorescence polarization. In general terms: Fluorescence polarisation rises when a labelled molecule tumbles more slowly, as on binding a larger partner.
Procedure: Biochemical Kinase Inhibition Assay on CDK11 in Displacement Assay Format
Displacement Assay Format
Fluorescence Polarization (FP) experiments were carried out at room temperature using no-binding black 384-well microplates (Corning, NY), in 50 mM Tris HCl, pH 8, 10 mM MgCl2, 1 mM DTT, 1 mM CHAPS in a final volume of 60 μl. The plate reader was the Pherastar microplate reader (BMG). Polarization values were read using excitation and emission wavelengths of 590 and 675 nm, respectively. All FP values are expressed as mP units.
Compounds were 4-folds serially diluted in 100% DMSO and added directly to the CDK11A-p58 solution using the pin tool (V & P Scientific): 0.2 ul of the different compound concentrations in 20 ul of enzyme solution. After an incubation of 30 minutes at r.t., 40 ul of probe solution were added. […] The Pherastar reading is performed after 15 minutes of all components incubation. For each assay, high controls (equivalent to 0% displacement) contain probe, CDK11A-p58, and 0.33% DMSO, whereas low controls (equivalent to 100% displacement) contain only probe and 0.33% DMSO. Controls are used for the Z′ and signal to background evaluation.
The data per each molecule are analyzed by Prism SW or an internally customized version of the SW package “Assay Explorer” which provides sigmoidal fittings of the ten-dilution curves for DC50 determination using a 4 parameters logistic equation:
where x is the logarithm of the inhibitor concentration, y is the response; y starts at bottom and goes to top with a sigmoid shape.
As to `CN1CCC(C(=O)Nc2n[nH]c3ccc(-c4c(F)cccc4F)cc23)CC1` [cpd 105, N-[5-(2,6-Difluorophenyl)-1H-indazol-3-yl]-1-methylpiperidine-4-carboxamide hydrochloride], the DC50 stood at 364 nM.

For `CCCCN1CCC(C(=O)Nc2n[nH]c3ccc(-c4cc(C#N)ccc4Cl)cc23)CC1` [compound 140, 1-Butyl-N-[5-(2-chloro-5-cyanophenyl)-1H-indazol-3-yl]piperidine-4-carboxamide hydrochloride], the DC50 amounted to 68 nM.

As to `O=C(Nc1n[nH]c2ccc(-c3cc(F)ccc3C(F)(F)F)cc12)[C@@H]1CCCNC1` [cpd 46, (3R)-N-{5-[5-Fluoro-2-(trifluoromethyl)phenyl]-1H-indazol-3-yl}piperidine-3-carboxamide hydrochloride], the DC50 stood at 37 nM.

In the case of `CN1CCC(C(=O)Nc2n[nH]c3ccc(-c4c(F)cccc4Cl)cc23)CC1` [cpd 64, N-[5-(2-Chloro-6-fluorophenyl)-1H-indazol-3-yl]-1-methylpiperidine-4-carboxamide hydrochloride], the DC50 was found to be 66 nM.

`CN1CCC(C(=O)Nc2n[nH]c3ccc(-c4cc(F)ccc4C#N)cc23)CC1` [compound 136, N-[5-(2-Cyano-5-fluorophenyl)-1H-indazol-3-yl]-1-methylpiperidine-4-carboxamide hydrochloride]: the DC50 was determined as 486 nM.

Molecule `COCCOc1ccc2[nH]nc(NC(=O)[C@@H]3CCCNC3)c2c1` [cpd 228, (3R)-N-[5-(2-Methoxyethoxy)-1H-indazol-3-yl]piperidine-3-carboxamide hydrochloride] gave a DC50 of 406 nM.

`O=C(Nc1n[nH]c2ccc(-c3cc(F)ccc3F)cc12)[C@@H]1CCCNC1` [cpd 35, (3R)-N-[5-(2,5-Difluorophenyl)-1H-indazol-3-yl]piperidine-3-carboxamide hydrochloride] yielded a DC50 of 35 nM.

As to `COc1cc(F)c(-c2ccc3[nH]nc(NC(=O)C4CCN(C)CC4)c3c2)c(F)c1` [cpd 120, N-[5-(2,6-Difluoro-4-methoxyphenyl)-1H-indazol-3-yl]-1-methylpiperidine-4-carboxamide hydrochloride], the DC50 was 619 nM.

`CC(C)OC(=O)c1ccc(Cl)c(-c2ccc3[nH]nc(NC(=O)[C@@H]4CCCNC4)c3c2)c1` [cpd 56, Propan-2-yl 4-chloro-3-(3-{[(3R)-piperidin-3-ylcarbonyl]amino}-1H-indazol-5-yl)benzoate hydrochloride]: the DC50 worked out at 100 nM.

As for `COc1ccc(F)c(-c2ccc3[nH]nc(NC(=O)[C@@H]4CCCNC4)c3c2)c1` [cpd 20, (3R)-N-[5-(2-Fluoro-5-methoxyphenyl)-1H-indazol-3-yl]piperidine-3-carboxamide hydrochloride], the DC50 was determined as 89 nM.

Molecule `CN1CCC(C(=O)Nc2n[nH]c3ccc(-c4cc(C(F)(F)F)ccc4Cl)cc23)CC1` [cpd 94, N-{5-[2-Chloro-5-(trifluoromethyl)phenyl]-1H-indazol-3-yl}-1-methylpiperidine-4-carboxamide hydrochloride] showed a DC50 of 592 nM.

Molecule `CNC(=O)c1ccc(C#N)c(-c2ccc3[nH]nc(NC(=O)[C@@H]4CCCNC4)c3c2)c1` [cpd 55, (3R)-N-{5-[2-Cyano-5-(methylcarbamoyl)phenyl]-1H-indazol-3-yl}piperidine-3-carboxamide hydrochloride] displayed a DC50 of 90 nM.

Molecule `COC(=O)c1cc(-c2ccc3[nH]nc(NC(=O)[C@@H]4CCCNC4)c3c2)c(Cl)cc1Cl` [cpd 42, Methyl 2,4-dichloro-5-(3-{[(3R)-piperidin-3-ylcarbonyl]amino}-1H-indazol-5-yl)benzoate hydrochloride] registered a DC50 of 57 nM.

As to `O=C(Nc1n[nH]c2ccc(-c3cc(Cl)ccc3C(F)(F)F)cc12)C1CCCNC1` (stereo not drawn) [cpd 15, N-{5-[5-Chloro-2-(trifluoromethyl)phenyl]-1H-indazol-3-yl}piperidine-3-carboxamide trifluoroacetate], the DC50 was 130 nM.

`Cc1ccc(Cl)c(-c2ccc3[nH]nc(NC(=O)C4CCN(C)CC4)c3c2)c1` [cpd 86, N-[5-(2-Chloro-5-methylphenyl)-1H-indazol-3-yl]-1-methylpiperidine-4-carboxamide hydrochloride] displayed a DC50 of 502 nM.

The molecule `CC(C)(C)C(=O)OCOC(=O)N1CCC[C@@H](C(=O)Nc2n[nH]c3ccc(-c4cc(C#N)ccc4Cl)cc23)C1` [compound 193, [(2,2-Dimethylpropanoyl)oxy]methyl (3R)-3-{[5-(2-chloro-5-cyanophenyl)-1H-indazol-3-yl]carbamoyl}-piperidine-1-carboxylate] had a DC50 of 340 nM.

On to `CCOc1ccc(F)c(-c2ccc3[nH]nc(NC(=O)[C@@H]4CCCNC4)c3c2)c1` [cpd 22, (3R)-N-[5-(5-Ethoxy-2-fluorophenyl)-1H-indazol-3-yl]piperidine-3-carboxamide hydrochloride], for which the DC50 was 55 nM.

For `CC(C)(CO)CN1CCC(C(=O)Nc2n[nH]c3ccc(-c4c(Cl)cccc4Cl)cc23)CC1` [cpd 71, N-[5-(2,6-Dichlorophenyl)-1H-indazol-3-yl]-1-(3-hydroxy-2,2-dimethylpropyl)piperidine-4-carboxamide], the DC50 worked out at 135 nM.

Molecule `CN(C)C1CC(C(=O)Nc2n[nH]c3ccc(-c4cc(C#N)ccc4Cl)cc23)C1` (stereo not drawn) [compound 147, N-[5-(2-Chloro-5-cyanophenyl)-1H-indazol-3-yl]-3-(dimethylamino)cyclobutanecarboxamide hydrochloride] returned a DC50 of 108 nM.

As for `CN1CCC(C(=O)Nc2n[nH]c3ccc(-c4ccccc4)cc23)CC1` [cpd 93, 1-Methyl-N-(5-phenyl-1H-indazol-3-yl)piperidine-4-carboxamide hydrochloride], the DC50 was determined as 938 nM.

With `COc1ccc(Cl)c(-c2ccc3[nH]nc(NC(=O)[C@@H]4CCCNC4)c3c2)c1` [cpd 18, (3R)-N-[5-(2-Chloro-5-methoxyphenyl)-1H-indazol-3-yl]piperidine-3-carboxamide hydrochloride], the DC50 was 25 nM.

In turn, `COC(=O)c1cc(-c2ccc3[nH]nc(NC(=O)[C@@H]4CCNC4)c3c2)c(Cl)cc1N` [cpd 54, Methyl 2-amino-4-chloro-5-(3-{[(3R)-pyrrolidin-3-ylcarbonyl]amino}-1H-indazol-5-yl)benzoate dihydrochloride] registered a DC50 of 102 nM.

In turn, `O=C(Nc1n[nH]c2ccc(-c3cc(Cl)ccc3F)cc12)[C@@H]1CCCNC1` [cpd 21, (3R)-N-[5-(5-Chloro-2-fluorophenyl)-1H-indazol-3-yl]piperidine-3-carboxamide hydrochloride] came in with a DC50 of 46 nM.

Consider `Cc1ccc(-c2ccc3[nH]nc(NC(=O)C4CCN(C)CC4)c3c2)c(F)c1` [cpd 119, N-[5-(2-Fluoro-4-methylphenyl)-1H-indazol-3-yl]-1-methylpiperidine-4-carboxamide hydrochloride], for which the DC50 was determined as 665 nM.

With `O=C(Nc1n[nH]c2ccc(-c3ccc(O)cc3Cl)cc12)[C@@H]1CCCNC1` [cpd 6, (3R)-N-[5-(2-chloro-4-hydroxyphenyl)-1H-indazol-3-yl]piperidine-3-carboxamide hydrochloride], the DC50 is 23 nM.

`N#Cc1ccc(Cl)c(-c2ccc3[nH]nc(NC(=O)[C@H]4CCC5(CCCC5)NC4)c3c2)c1` (single isomer, unassigned) [compound 205, (8-)-N-[5-(2-Chloro-5-cyanophenyl)-1H-indazol-3-yl]-6-azaspiro[4.5]decane-8-carboxamide hydrochloride]: the DC50 came to 278 nM.

`CC(=O)c1ccc(Cl)c(-c2ccc3[nH]nc(NC(=O)[C@@H]4CCNC4)c3c2)c1` [cpd 38, (3R)-N-[5-(5-Acetyl-2-chlorophenyl)-1H-indazol-3-yl]pyrrolidine-3-carboxamide hydrochloride] registered a DC50 of 16 nM.

On to `CN1CCC(C(=O)Nc2n[nH]c3ccc(-c4ccccc4C(F)(F)F)cc23)CC1` [cpd 104, 1-Methyl-N-{5-[2-(trifluoromethyl)phenyl]-1H-indazol-3-yl}piperidine-4-carboxamide hydrochloride], for which the DC50 worked out at 330 nM.

With `CN1CCC(C(=O)Nc2n[nH]c3ccc(-c4cc(C#N)ccc4Cl)cc23)CC1` [cpd 116, N-[5-(2-Chloro-5-cyanophenyl)-1H-indazol-3-yl]-1-methylpiperidine-4-carboxamide trifluoroacetate], the DC50 amounted to 63 nM.

`CC(C)Oc1ccc2[nH]nc(NC(=O)[C@@H]3CCCNC3)c2c1` [cpd 230, (3R)-N-[5-(Propan-2-yloxy)-1H-indazol-3-yl]piperidine-3-carboxamide hydrochloride] showed a DC50 of 27 nM.

Consider `CN1CCC(C(=O)Nc2n[nH]c3ccc(-c4cccc(Cl)c4Cl)cc23)CC1` [cpd 97, N-[5-(2,3-Dichlorophenyl)-1H-indazol-3-yl]-1-methylpiperidine-4-carboxamide hydrochloride], for which the DC50 came to 643 nM.

For `O=C(Nc1n[nH]c2ccc(-c3cc(OC(F)(F)F)ccc3F)cc12)[C@@H]1CCCNC1` [cpd 23, (3R)-N-{5-[2-Fluoro-5-(trifluoromethoxy)phenyl]-1H-indazol-3-yl}piperidine-3-carboxamide hydrochloride], the DC50 is 75 nM.

As to `O=C(Nc1n[nH]c2ccc(-c3ccc(Cl)cc3C(F)(F)F)cc12)[C@@H]1CCCNC1` [cpd 45, (3R)-N-{5-[4-Chloro-2-(trifluoromethyl)phenyl]-1H-indazol-3-yl}piperidine-3-carboxamide hydrochloride], the DC50 turned out to be 88 nM.
